Tests used:
mouse P2X4 = target: T1, mouse P2X4 (Mus musculus, UniProt Q9JJX6); assay: FLIPR assay, mouse P2X4 1321N1 Astrocytoma cells; type: cell-based; conditions: agonist Mg-ATP 0.5 μM (EC80)
T1 sequence (Q9JJX6 1-388): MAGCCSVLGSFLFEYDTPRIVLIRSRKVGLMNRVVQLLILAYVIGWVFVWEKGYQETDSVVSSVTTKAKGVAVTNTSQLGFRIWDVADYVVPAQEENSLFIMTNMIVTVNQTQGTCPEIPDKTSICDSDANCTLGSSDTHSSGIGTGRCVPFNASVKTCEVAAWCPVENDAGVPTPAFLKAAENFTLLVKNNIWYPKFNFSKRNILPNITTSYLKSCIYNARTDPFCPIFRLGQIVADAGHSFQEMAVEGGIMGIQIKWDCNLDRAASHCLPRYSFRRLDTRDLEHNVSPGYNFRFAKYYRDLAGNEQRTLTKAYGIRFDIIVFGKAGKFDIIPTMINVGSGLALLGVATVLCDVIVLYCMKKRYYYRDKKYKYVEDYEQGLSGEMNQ
Description: (§1) 1321N1 Astrocytoma cells stably expressing human P2X4 or rat P2X4 or mouse P2X4 were plated in Collagen I TC-treated microplate at a seeding density of 10000 cells/well and incubated overnight. P2X4 function was assessed by measuring intracellular calcium changes using the calcium-chelating dye Fluo8-AM (Molecular Devices) on a fluorescent imaging plate reader (FLEX/FLIPR station; Molecular Devices). On the day of the assay, the medium was removed and the cells were incubated for 30 min at 37 °C and 5% CO2 in 30 μL of dye buffer (Hank's balanced salt solution, 10 mM HEPES, 1.8 mM CaCl2, 1 mM MgCl2, 2 mM probenecid, 5 mM D-glucose monohydrate, 5 μM Fluo8-AM, pH=7.4). Compounds diluted in probenecid buffer (Hank's balanced salt solution, 10 mM HEPES, 1.8 mM CaCl2, 1 mM MgCl2, 2 mM probenecid, 5 mM D-glucose monohydrate, pH=7.4) were added in a volume of 10 μL and allowed to incubate for 30 min at room temperature. The final assay DMSO concentration was 0.25%. The agonist, Mg-ATP (Sigma), was added in a volume of 10 μL at a concentration representing the EC80 value. EC80 was determined to be 0.5 μM for human and mouse P2X4 and 5 μM for rat P2X4. The fluorescence was measured for an interval of 120 sec at 2 sec intervals. The excitation and emission wavelengths used to monitor fluorescence were 470-495 nm and 515-575 nm, respectively. The data was analyzed based on the increase in peak relative fluorescence units (RFU) compared to the basal fluorescence and the data was normalized to the agonist control. The compounds were tested in triplicates per plate and mean values were plotted in Excel XLFit to determine IC50 values, percentage of maximal inhibition and the Hill coefficients.

Sprague Dawley rats = assay: CFA-Induced Mechanical Hyperalgesia Model in Rat; type: in vivo; conditions: 3 oral doses, 26 h after CFA, vs vehicle
Description: Male Sprague Dawley rats were used. Mechanical hyperalgesia was induced by injecting […] of Complete Freund's Adjuvant (CFA) into the plantar surface of the left hind paw. Mechanical hyperalgesia was measured using the Pressure Application Measurement apparatus (Ugo Basile, Gemonio, Italy). Briefly, a linearly increasing pressure was applied to an area of approximately 50 mm^2 of the plantar side of the hind paw, until a behavioural response (paw withdrawal) was observed or until the pressure reached 1000 gf. The pressure at which the behavioural response occurred was recorded as the Paw Withdrawal Threshold (PWT). Both CFA-injected and contralateral PWTs were determined for each rat, in each treatment group and at each time point of the studies. Rats received 3 oral doses of test compound at approximately 12 hours interval starting 1 hour prior to CFA injection. Mechanical hyperalgesia testing was performed 2 hours before CFA injection and 2 hours after the last dosing (FIGS. 4a and 4b).
FIGS. 4a and 4b as nonbinding explanatory examples of compounds according to the invention represent Paw Withdrawal Threshold in gramm (y-axis) of the ipsilateral paw of all tested animals before CFA treatment and 26 h after CFA treatment and vehicle or Example 39 (FIG. 4a) or 326 (FIG. 4b) treatment. […]

rat P2X4 = target: T2, rat P2X4 (Rattus norvegicus, UniProt P51577); assay: FLIPR assay, rat P2X4 1321N1 Astrocytoma cells; type: cell-based; conditions: agonist Mg-ATP 5 μM (EC80)
T2 sequence (P51577 1-388): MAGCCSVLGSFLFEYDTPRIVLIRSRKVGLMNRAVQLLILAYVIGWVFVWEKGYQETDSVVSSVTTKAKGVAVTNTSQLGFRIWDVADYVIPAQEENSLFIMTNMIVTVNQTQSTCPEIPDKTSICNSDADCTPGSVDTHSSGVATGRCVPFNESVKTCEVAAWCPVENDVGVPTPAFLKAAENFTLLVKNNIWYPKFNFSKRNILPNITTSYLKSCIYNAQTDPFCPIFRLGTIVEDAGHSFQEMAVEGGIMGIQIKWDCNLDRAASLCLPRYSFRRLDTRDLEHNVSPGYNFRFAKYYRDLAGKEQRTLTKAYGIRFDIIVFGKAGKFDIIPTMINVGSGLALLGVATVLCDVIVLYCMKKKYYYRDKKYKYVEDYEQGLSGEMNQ
Description: as §1

Mouse P2X4 1321N1 Astrocytoma Cells (FLIPR Assay) avg Efficacy [%] (mouse P2X4)	Rat P2X4 1321N1 Astrocytoma Cells (FLIPR Assay) avg Efficacy [%] (rat P2X4)	SMILES	Paw Withdrawal Threshold (PWT), ipsilateral paw (Sprague Dawley rats)
87%	87%	N#Cc1cnn(-c2ccc(NC(=O)Cc3ccccc3Cl)cc2S(N)(=O)=O)c1 [Example 39, 2-(2-Chlorophenyl)-N-[4-(4-cyano-1H-pyrazol-1-yl)-3-sulfamoylphenyl]acetamide]	significantly increased PWT
87%	99%	NS(=O)(=O)c1cc(NC(=O)Cc2ccccc2Cl)ccc1-c1cnn(C(F)F)c1 [Example 326, 2-(2-Chlorophenyl)-N-{4-[1-(difluoromethyl)-1H-pyrazol-4-yl]-3-sulfamoylphenyl}acetamide]	significantly increased PWT

— patent US11524938B2, “Aromatic sulfonamide derivatives” (Bayer Pharma Aktiengesellschaft, priority 2016, dated 2022)
